According to ChEMBL document CHEMBL1145615, “A refined pharmacophore model for HIV-1 integrase inhibitors: Optimization of potency in the 1H-benzylindole series” (Bioorg Med Chem Lett, 2008):
pEC50, pIC50: −log10 of the molar value.

Tests used:
[1] = Cytotoxicity against human MT4 cells; assay type: cell-based
[2] = Selectivity index, ratio of CC50 for human MT4 cells to EC50 for HIV1 3B; assay type: functional
[3] = biological target: T1, Human immunodeficiency virus type 1 integrase (Human immunodeficiency virus 1, UniProt Q7ZJM1)
T1 sequence (Q7ZJM1 whole entry): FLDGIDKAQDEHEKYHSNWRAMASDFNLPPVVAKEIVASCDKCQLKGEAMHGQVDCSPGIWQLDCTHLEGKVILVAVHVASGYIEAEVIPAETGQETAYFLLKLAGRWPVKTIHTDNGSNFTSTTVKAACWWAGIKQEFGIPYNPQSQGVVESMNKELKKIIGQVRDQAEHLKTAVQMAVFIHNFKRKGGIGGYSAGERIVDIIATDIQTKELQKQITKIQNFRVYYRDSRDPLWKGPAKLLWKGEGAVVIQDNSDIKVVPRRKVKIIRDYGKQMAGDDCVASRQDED
Description: Inhibition of HIV1 integrase

[4] = biological target: T1, Human immunodeficiency virus type 1 integrase; remark: listed apart in the source
Description: Inhibition of HIV1 integrase strand transfer activity

[5] = test system: Human immunodeficiency virus 1; assay: Antiviral activity against HIV1 3B assessed as inhibition of viral-induced cytopathic effect in human MT4 cells; assay type: functional, organism-based; settings: Human immunodeficiency virus 1, 3B

Row | Compound | CC50 [1] [µM] | Ratio CC50/EC50 [2] | pIC50 [3] | pIC50 [4] | pEC50 [5]
1 | COc1cccc2c1c(C(=O)/C=C(\O)C(=O)O)cn2Cc1ccc(F)cc1 | 41.1 | 70 | 7.10 | 6.85 | 
2 | COc1ccc2c(C(=O)/C=C(\O)C(=O)O)cn(Cc3ccc(F)cc3)c2c1 | 66 | 8 | 6.72 | 6.66 | 5.08
3 | CCOC(=O)/C(O)=C/C(=O)c1cn(Cc2ccc(F)cc2)c2c(OC)cccc12 | > 100 |  | 5.32 | 5.58 | < 4.00
4 | CCOC(=O)/C(O)=C/C(=O)c1cn(Cc2ccc(F)cc2)c2ccc(OC)cc12 | 126 | 11 | 5.34 | 5.12 | 4.94
5 | COc1ccc2c(c1)c(C(=O)/C=C(\O)C(=O)O)cn2Cc1ccc(F)cc1 | 63.6 | 12 | 6.52 | 6.57 | 5.25
6 | CCOC(=O)/C(O)=C/C(=O)c1cn(Cc2ccc(F)cc2)c2cccc(OC)c12 | 74 | 24 | 4.07 | 4.03 | 5.50
7 | Cc1nnc(C(=O)NC(C)(C)c2nc(C(=O)NCc3ccc(F)cc3)c(O)c(=O)n2C)o1 | > 18 |  |  |  | 7.89
8 | O=C(O)/C(O)=C/C(=O)c1cn(Cc2ccc(F)cc2)c2ccccc12 | 64.1 | 8 | 6.07 | 5.63 | 5.08
9 | COc1ccc(OC)c2c1c(C(=O)/C=C(\O)C(=O)O)cn2Cc1ccc(F)cc1 | 213 | 100 | 7.22 | 7.52 | 5.67
10 | COc1cc2c(cc1Cc1cccc(Cl)c1F)c(=O)c(C(=O)O)cn2[C@H](CO)C(C)C | 2.12 |  |  |  | 9.10
11 | CCOC(=O)/C(O)=C/C(=O)c1cn(Cc2ccc(F)cc2)c2cc(OC)ccc12 | 100 | <1 | 5.71 | 5.63 | < 4.00
12 | CCOC(=O)/C(O)=C/C(=O)c1cn(Cc2ccc(F)cc2)c2c(OC)ccc(OC)c12 | 81.1 | 20 | 5.91 | 6.18 | 5.39
13 | COc1cccc2c(C(=O)/C=C(\O)C(=O)O)cn(Cc3ccc(F)cc3)c12 | 82.9 | 12 | 6.57 | 6.72 | 5.15
